Test results from publication PMC7043877, “Synthesis and evaluation of a prodrug of 5-aminosalicylic acid for the treatment of ulcerative colitis” (Iranian Journal of Basic Medical Sciences, 2019).
Blank lines part the entries; values can stand above or below the compound they belong to.

Legend:
[1] = Pharmacokinetic study in rats after oral administration; type: in vivo, rat
Description: Twelve male Sprague-Dawley rats were randomly divided in two groups (n=6), the 5-ASA-ALA group and 5-ASA group. Rats were orally administered with a certain amount of 5-ASA-ALA (equivalent to 50 mg/kg of 5-ASA) and 5-ASA. At 0.25, 0.5, 1, 2, 4, 6 and 8 hr, blood samples were collected from the jugular vein and then centrifuged at 13000 g, 4 °C for 5 min to separate plasma. The plasma sample (0.1 ml) was mixed with methanol (0.4 ml), vortexed for 5 min and then centrifuged again. Finally, the supernatant was obtained, dried under nitrogen, dissolved in methanol and used for HPLC detection.

[2] = In vitro incubation with colon contents of rats; type: in vitro ADME, rat
Description: Four g of colon contents of rats (n=6) were collected and mixed with 5-ASA-ALA solution (0.1 g/ml) in PBS (pH=7.4, 40 ml), the mixture was incubated under nitrogen atmosphere at 37 °C. At the time point of 0, 1, 2, 3, 4, 5, 6, 7, 8, 9 and 10 hr, the mixture (0.5 ml) was sampled and replaced with an equivalent volume of PBS. Samples were then centrifuged and filtered, the concentration of 5-ASA was detected by HPLC method. The experiment was conducted at seven concentration levels of 5-ASA-ALA (27.5, 50.0, 72.5, 105.0, 150.0, 200.0 and 305.0 μg/ml). The hydrolysis curve of each concentration was drawn, the linear regression was made to obtain regression equations, and the slope of each curve was regarded as the hydrolysis rate of 5-ASA-ALA.

[3] = Stability study of 5-ASA-ALA in rat plasma and stomach, small intestine and colon contents (room temperature storage, freezing-thawing); type: in vitro ADME; conditions: all tissue samples at 0.4, 1.6 and 6.4 μg/ml, both storage conditions
Description: This study was tested at three concentration levels of 5-ASA-ALA to evaluate its in vitro stability in tissue samples and validate the HPLC method for 5-ASA-ALA analysis under different conditions. Briefly, five rats were anesthetized and sacrificed, and their abdomen was cut open through the middle. Their stomach contents, small intestine contents and colon contents were collected and mixed with hydrochloric acid buffer (pH=1.2) and phosphate buffered saline (PBS) (pH=6.8 and 7.4), respectively, and homogenized to 20% (w/v). Then 1.0 ml of 5-ASA-ALA solution (dissolved in corresponding buffers) was mixed with the same volume of rat plasma, freshly prepared stomach contents, small intestine contents and colon contents, respectively, with the final concentration of 0.4, 1.6 and 6.4 μg/ml. Samples were divided into two groups, stored at room temperature for 10 hr or went through the freezing-thawing cycles twice. At the end of the storage and the freezing-thawing cycle, samples were centrifuged at 13000 g for 10 min and mixed with methanol (0.4 ml), then the mixture was vortexed and centrifuged again. Finally, the supernatant was collected, concentrated with nitrogen, and dissolved in methanol for HPLC analysis ([15]). Each concentration level was tested five times and the RSD was calculated respectively.

[4] = Transport study across Caco-2 monolayers (Papp); type: in vitro ADME, human; conditions: human, Caco-2
Description: (§1) Caco-2 cells were grown in DEME medium containing 10% FBS, 100 unit/ml peniciline, 100 µg/ml streptomycine, 2 mM glutamine, 1% sodium pyruvate and 1% non-essential amino acids at 37 °C in a humidified atmosphere of 95% air and 5% CO2. Cells were seeded on polycarbonate membranes (Transwell, diameter 24 mm, pore size 0.4 μm, Corning Costar, NY, USA) at 1×10^5 cells/well in a 6-well plate ([16]). Propranolol was used as a positive control.
(§2) Eight days later, Caco-2 cells reached 100% confluence and then were cultured for 18 days more. The culture medium was discarded, and then the apical (AP) and basal (BL) chambers were washed for 3 times with PBS. The culture medium was then replaced with 1 ml of propranolol or 5-ASA-ALA solution ([…]) in the AP chamber. In the BL chamber, 2 ml of PBS was added instead of the culture medium. The plate was incubated at 37 °C in an atmosphere of 95% air and 5% CO2 ([17]). After 0, 2, 4, 6, and 8 hr of incubation, the concentration of propranolol and 5-ASA-ALA in the BL chamber was measured by HPLC method, and the apparent permeability coefficient (Papp) of drugs was calculated as follows: […]
(§3) where dQ/dt (μmol/s) is the transport rate, C0 (μmol/cm^3) is the initial concentration in the donor chamber, and A (cm^2) is the surface area of insert filter membrane. Experiments were performed in triplicate.

Caco-2 cells [5] = assay: Transport study across Caco-2 monolayers (Papp); type: in vitro ADME, human; conditions: compared with propranolol
Description: as §1, §2, §3

[6] = tested on: MPO activity in colonic tissues; assay: TNBS-induced colitis: MPO activity in colonic tissues; type: in vivo, mice; conditions: P<0.01
Description: (§4) Colitis induction was performed based on the previous study ([20]). After a 12 hr of fast, mice were anesthetized with pentobarbital sodium (40 mg/kg of body weight). TNBS solution (0.1 ml dissolved in 50% ethanol, 2.5%) was injected into the colon of mice (3.5-4 cm from the anus), and then mice were kept head downward for 30 sec to prevent drug leakage. Twenty-four hr after the injection of TNBS, mice were administrated once daily for five continuous days with different drugs. Briefly, mice in treatment groups were administrated with a given dose of drugs by gavage (0.1 ml, equivalent to 100 mg/kg of 5-ASA) ([21]). Besides, mice in the control group and the positive group received a same volume of normal saline, and a physical mixture of 5-ASA and alanine, respectively. Forty-eight mice were randomly divided into four groups (n=12): 1) control (intragastric-gavage (ig), normal saline, no colitis induced), 2) TNBS (ig, normal saline), 3) positive (ig, 100 mg/kg 5-ASA+56 mg/kg alanine, dissolved in normal saline), 4) 5-ASA-ALA (ig, 156 mg/kg, dissolved in normal saline).
Colonic tissue samples were cleaned, dried and then suspended in HTAB solution (0.5%, pH=7.4), the final concentration of the tissue samples was 50 g/l. […] Finally, MPO activity in colonic tissues was detected by an assay kit according to the provider’s instructions.

TNBS-induced colitis [7] = assay: TNBS-induced colitis: colonic damage score (CDS) and colon index; type: in vivo, mice; conditions: vs positive control, P<0.05
Description: Colitis induction was performed based on the previous study ([20]). After a 12 hr of fast, mice were anesthetized with pentobarbital sodium (40 mg/kg of body weight). TNBS solution (0.1 ml dissolved in 50% ethanol, 2.5%) was injected into the colon of mice (3.5-4 cm from the anus), and then mice were kept head downward for 30 sec to prevent drug leakage. Twenty-four hr after the injection of TNBS, mice were administrated once daily for five continuous days with different drugs. Briefly, mice in treatment groups were administrated with a given dose of drugs by gavage (0.1 ml, equivalent to 100 mg/kg of 5-ASA) ([21]). […]
All mice were sacrificed on the 5th day of the experiment, their colonic tissues were excised, cut longitudinally, washed carefully with normal saline, and observed with a magnifying glass. The colonic damage score (CDS) was evaluated according to following scoring criteria: 0, no ulcer and colitis; 1, local hyperemia without ulcer; 2, ulcers without local hyperemia; 3, only one ulcerative and inflammatory lesion; 4, more than one ulcerative and inflammatory lesions; 5, more than 2 cm of continuous ulcer areas ([24]).
The entire colon samples were dried with filter papers, the length and weight of the samples were measured and recorded, respectively, in order to calculate the colon index of mice as the following formula: […]

[8] = tested on: GSH, MDA, GSH-Px and SOD in colonic tissues; assay: TNBS-induced colitis: levels of GSH, MDA, GSH-Px and SOD in colonic tissues; type: in vivo, mice; conditions: P<0.01
Description: as §4
Clean and dried colonic tissues were homogenized in ice-cold normal saline, the resulting homogenate (10%, w/v) was centrifuged at 4 °C, 13000 g for 15 min. The obtained supernatant was diluted with normal saline to 1% (w/v), and the protein levels in the supernatant were measured by a BCA protein assay kit. The levels of GSH and MDA, and the activity of GSH-Px and SOD in the colonic tissues were measured by assay kits according to the provider’s instructions.

TNBS-induced colitis [9] = assay: TNBS-induced colitis: disease activity index (DAI); type: in vivo, mice; conditions: compared with the positive control
Description: as §4
The disease activity index (DAI) of mice was scored and recorded daily from day 1 according to the scoring criteria (Table 1). […] The degree of fecal occult blood was evaluated by the ο-tolidine method ([22]), and scored based on the criteria reported by Kohn and kelly ([23]).

colonic microflora = assay: In vivo incubation in the colon of rats (with or without clindamycin pretreatment); conditions: incubation in rat colon for 8 hr
Description: Rats were randomly divided into two groups (n=6), the clindamycin group and the control group. Clindamycin was used as an inhibitor of the colonic microflora. Rats were administered with a certain dose of clindamycin (25 mg/kg of body weight) and an equivalent volume of normal saline by gavage, twice daily for three days, respectively. After that, rats were anesthetized by diethyl ether, their abdomen was cut open, and then 5-ASA-ALA solution (2 mg, dissolved in 1 ml of PBS, pH=7.4) was injected into their colon, finally, their colon was tied at both ends and their abdomen was sutured immediately ([18], [19]). Eight hr later, animals were sacrificed, the colon contents of rats were collected and homogenized in PBS (pH=7.4, 40 ml). The homogenate was then centrifuged, and the supernatant was obtained and mixed with four times the volume of methanol, finally, samples were centrifuged, filtered and analyzed by HPLC. The percent of hydrolysis of 5-ASA-ALA was calculated as follows: percent of hydrolysis %=(1-Wf/Wt)×100 where Wf is the free amount of 5-ASA in the colon contents and Wi is the initial amount of 5-ASA-ALA that administered to rats.

TNBS-induced colitis [10] = assay: TNBS-induced colitis: survival rate and body weight of mice; type: in vivo; conditions: ig equivalent to 100 mg/kg of 5-ASA, once daily 5 days
Description: as §4
From day 0 of colitis induction, the body weight of each mouse and the death of each group were recorded daily. Finally, the degree of TNBS-induced colitis in mice of each group was evaluated based on the curves of weight changes and the final survival rate of mice for each group.

Caco-2 cells [11] = conditions: Caco-2 cell monolayer, known value that justifies the positive control; no reference given; cited from earlier work
[12] = vs TNBS group, five days of treatment

Tmax ([1]; male, Sprague-Dawley, rat, oral administration, 50 mg/kg of 5-ASA, plasma): 30 min
SMILES: Nc1ccc(O)c(C(=O)O)c1 [5-ASA, 5-Aminosalicylic acid]

SMILES: CC(NC(=O)c1cc(N)ccc1O)C(=O)O (centres unmarked) [5-ASA-ALA, 5-Aminosalicylic acid-alanine]
plasma concentration ([1]; oral, equivalent to 50 mg/kg of 5-ASA, 0-8 hr): not detected | concentration of 5-ASA-ALA above which the hydrolysis rate did not increase anymore (zero-order) ([2]; colon contents of rats, Figure 3): above 200 µg/ml | 5-ASA released from 5-ASA-ALA ([2]; colon contents, PBS pH 7.4, nitrogen, 37 °C, 0-10 hr): gradually released | RSDs in all tissue samples [3]: < 4% | Papp at 8 hr, 200 μmol/l ([4]; apical to basal direction, at 200 μmol/l): 2.63 ×10⁻⁶ cm/s | Papp at 8 hr, 400 μmol/l ([4]; apical to basal direction, at 400 μmol/l): 1.73 ×10⁻⁶ cm/s | absorption in the Caco-2 monolayer (Caco-2 cells [5]): significantly less than the propranolol | MPO activity in colonic tissues ([6]; vs TNBS group): significantly reduced | MPO activity in colonic tissues ([6]; vs positive control): obviously more effective than the positive control | CDS (TNBS-induced colitis [7]): significantly greater effect than the positive control | GSH level in colonic tissues [8, 12]: significantly higher | GSH-Px activity in colonic tissues [8, 12]: higher activities | MDA level in colonic tissues [8, 12]: significantly lower | SOD activity in colonic tissues [8, 12]: higher activities | reducing the MDA level in the colon ([8]; vs positive control): significantly greater effect | DAI (TNBS-induced colitis [9]): more effective than the positive control | percent of hydrolysis (colonic microflora; clindamycin group (25 mg/kg twice daily, three days), P<0.01): 5.26% | percent of hydrolysis (colonic microflora; control group (normal saline)): 89.14% | body weight (TNBS-induced colitis [10]; alleviated from the third day): slight weight loss in the first two days | survival rate (TNBS-induced colitis [10]; positive control vs 5-ASA-ALA group, n=12): no significant difference

Papp at 8 hr, 100 μmol/l ([4]; detected in this study, at 100 μmol/l): 24.8 ×10⁻⁶ cm/s
SMILES: CC(C)NCC(O)COc1cccc2ccccc12 (centres unmarked) [Propranolol, reference compound]
Papp (Caco-2 cells [11]): 27.5 ×10⁻⁶ cm/s
